Measured values as given in ChEMBL document CHEMBL2439961, “Synthesis and evaluation of the cell cycle arrest and CT DNA interaction properties of 4β-amino-4'-O-demethyl-4-deoxypodophyllotoxins” (Bioorg Med Chem, 2013).
Calls of active or inactive are those of the source. The calls are words filed in the database; no cut-off is given here.

Assays:
A549 = test: Cytotoxicity against human A549 cells after 48 hrs by MTT assay; assay type: functional, cell-based; details: A549, 48 h
HepG2 = test: Cytotoxicity against human HepG2 cells after 48 hrs by MTT assay; assay type: functional, cell-based; details: HepG2, 48 h
HCT-8 = test: Cytotoxicity against human HCT8 cells after 48 hrs by MTT assay; assay type: functional, cell-based; details: HCT-8, 48 h
HeLa [1] = test: Cytotoxicity against human HeLa cells after 48 hrs by MTT assay; assay type: functional, cell-based
HeLa [2] = test: Induction of morphological changes in human HeLa cells by immunofluorescence analysis; assay type: functional, cell-based; details: TDE = time-dependent effect
HeLa [3] = test: Increase of cyclin-B1 protein level in human HeLa cells Western blotting analysis; assay type: functional, cell-based
HeLa [4] = test: Induction of microtubule depolymerization in human HeLa cells assessed as short and dense microtubule networks at 0.5 uM using DAPI staining by immunofluorescence analysis; assay type: cell-based; details: TDE = time-dependent effect
HeLa [5] = test: Increase of p53 protein level in human HeLa cells Western blotting analysis; assay type: functional, cell-based
HeLa [6] = test: Cell cycle arrest in human HeLa cells assessed as accumulation at S phase at 0.5 uM after 24 hrs using propidium iodide staining by FACS analysis (reference value: 27.1%); assay type: functional
HeLa [7] = test: Cell cycle arrest in human HeLa cells assessed as accumulation at G2/M phase at 0.5 uM after 24 hrs using propidium iodide staining by FACS analysis (reference value: 24.4%); assay type: functional
HeLa [8] = test: Induction of apoptosis in human HeLa cells assessed as cell shrinkage, nuclear fragmentation and condensation dispersed throughout cytoplasm at 0.5 uM by immunofluorescence analysis; assay type: functional, cell-based; details: TDE = time-dependent effect
HeLa [9] = test: Induction of apoptosis in human HeLa cells assessed as early apoptotic cells at 0.5 uM after 24 hrs using annexin V-FITC/PI and Hoechst 33258 staining by FACS analysis (reference value: 2.34%); assay type: functional
HeLa [10] = test: Induction of apoptosis in human HeLa cells assessed as late apoptotic cells at 0.25 uM after 24 hrs using annexin V-FITC/PI and Hoechst 33258 staining by FACS analysis (reference value: 2.39%); assay type: functional
HeLa [11] = test: Induction of apoptosis in human HeLa cells assessed as early apoptotic cells at 0.25 uM after 24 hrs using annexin V-FITC/PI and Hoechst 33258 staining by FACS analysis (reference value: 2.34%); assay type: functional
HeLa [12] = test: Cell cycle arrest in human HeLa cells assessed as accumulation at G1 phase at 1 uM after 24 hrs using propidium iodide staining by FACS analysis (reference value: 48.5%); assay type: functional
HeLa [13] = test: Induction of apoptosis in human HeLa cells assessed as cell shrinkage, nuclear fragmentation and condensation dispersed throughout cytoplasm at 0.5 uM after 48 hrs by immunofluorescence analysis; assay type: functional, cell-based
HeLa [14] = test: Cell cycle arrest in human HeLa cells assessed as accumulation at G2/M phase after 24 hrs using propidium iodide staining by FACS analysis; assay type: functional, cell-based
HeLa [15] = test: Increase of caspase-3 protein level in human HeLa cells Western blotting analysis; assay type: functional, cell-based
HeLa [16] = test: Cell cycle arrest in human HeLa cells assessed as accumulation at S phase at 1 uM after 24 hrs using propidium iodide staining by FACS analysis (reference value: 27.1%); assay type: functional
HeLa [17] = test: Cell cycle arrest in human HeLa cells assessed as accumulation at sub-G1 phase at 0.5 uM after 24 hrs using propidium iodide staining by FACS analysis (reference value: 0%); assay type: functional
HeLa [18] = test: Induction of morphological changes in human HeLa cells after 48 hrs by immunofluorescence analysis; assay type: functional, cell-based
HeLa [19] = test: Cell cycle arrest in human HeLa cells assessed as accumulation at sub-G1 phase at 1 uM after 24 hrs using propidium iodide staining by FACS analysis (reference value: 0%); assay type: functional
HeLa [20] = test: Induction of apoptosis in human HeLa cells assessed as late apoptotic cells at 0.5 uM after 24 hrs using annexin V-FITC/PI and Hoechst 33258 staining by FACS analysis (reference value: 2.39%); assay type: functional
HeLa [21] = test: Cell cycle arrest in human HeLa cells assessed as accumulation at G2/M phase at 1 uM after 24 hrs using propidium iodide staining by FACS analysis (reference value: 24.4%); assay type: functional
HeLa [22] = test: Increase of CDC2 protein level in human HeLa cells Western blotting analysis; assay type: functional, cell-based
DNA [23] = test: Binding affinity to calf thymus DNA at 0.5 mM after 5 mins by fluorescence analysis; assay type: nucleic-acid assay; details: Bos taurus
HeLa [24] = test: Induction of microtubule depolymerization in human HeLa cells assessed as short and dense microtubule networks at 0.5 uM after 48 hrs using DAPI staining by immunofluorescence analysis; assay type: cell-based
HeLa [25] = test: Cell cycle arrest in human HeLa cells assessed as accumulation at G1 phase at 0.5 uM after 24 hrs using propidium iodide staining by FACS analysis (reference value: 48.5%); assay type: functional
DNA [26] = test: Binding affinity to calf thymus DNA assessed as reduction in intensity of positive band at 5 to 40 ug/ml after 24 hrs by circular dichroism analysis; assay type: nucleic-acid assay; details: Bos taurus

Compound COc1cc([C@@H]2c3cc4c(cc3[C@@H](Nc3ccc(S(=O)(=O)NC5CCCC5)cc3)[C@H]3COC(=O)[C@H]23)OCO4)cc(OC)c1O has an IC50 (A549) of 52.4 µM, an IC50 (HepG2) of 47.6 µM and an IC50 (HCT-8) of 38.7 µM. For the same compound, the IC50 (HeLa [1]) was 35.2 µM.
Compound COc1cc([C@@H]2c3cc4c(cc3[C@@H](NCCCNc3ccc([N+](=O)[O-])cc3)[C@H]3COC(=O)[C@H]23)OCO4)cc(OC)c1O has an IC50 (A549) of 43.2 µM, an IC50 (HepG2) of 22.4 µM and an IC50 (HCT-8) of 19.7 µM. The IC50 (HeLa [1]) was 10.5 µM.
Compound COc1cc([C@@H]2c3cc4c(cc3[C@@H](Nc3ccc(S(=O)(=O)N5CCN(c6ccc([N+](=O)[O-])cc6)CC5)cc3)[C@H]3COC(=O)[C@H]23)OCO4)cc(OC)c1O has an IC50 (A549) of 42.3 µM, an IC50 (HepG2) of 38.6 µM and an IC50 (HCT-8) of 32.5 µM. The IC50 (HeLa [1]) was 27.8 µM.
With COc1cc([C@@H]2c3cc4c(cc3[C@@H](N3CCN(c5ccc([N+](=O)[O-])cc5)CC3)[C@H]3COC(=O)[C@H]23)OCO4)cc(OC)c1O the Activity (HeLa [2]) was “tde”, the Activity (HeLa [3]) was “Dose-dependent effect” and the Activity (HeLa [4]) was “tde”. The Activity (HeLa [5]) was “Dose-dependent effect”, the Activity (HeLa [6]) was 58.7% and the IC50 (A549) was 0.16 µM. For the same compound, the Activity (HeLa [7]) was 35.4%, the Activity (HeLa [8]) was “tde” and the Activity (HeLa [9]) was 4.88%. It also gave an Activity (HeLa [10]) of 3.54%, an IC50 (HepG2) of 1.43 µM and an Activity (HeLa [11]) of 3.99%. For the same compound, the IC50 (HCT-8) was 2.12 µM, the Activity (HeLa [12]) was 0.1% and the Activity (HeLa [13]) was “Active”. For the same compound, the Activity (HeLa [14]) was “Dose-dependent effect”, the Activity (HeLa [15]) was “Dose-dependent effect” and the Activity (HeLa [16]) was 28.6%. The Activity (HeLa [17]) was 1%, the Activity (HeLa [18]) was “Active” and the Activity (HeLa [19]) was 4.9%. For the same compound, the IC50 (HeLa [1]) was 0.07 µM, the Activity (HeLa [20]) was 4.76% and the Activity (HeLa [21]) was 71.4%. For the same compound, the Activity (HeLa [22]) was “Dose-dependent effect”, the Activity (DNA [23]) was “Active” and the Activity (HeLa [24]) was “Active”. For the same compound, the Activity (HeLa [25]) was 5.9% and the Activity (DNA [26]) was “Active”.
COc1cc([C@@H]2c3cc4c(cc3[C@@H](N3CCN(C)CC3)[C@H]3COC(=O)[C@H]23)OCO4)cc(OC)c1O showed an IC50 (A549) of 26.4 µM, an IC50 (HepG2) of 2.72 µM and an IC50 (HCT-8) of 12.4 µM. The IC50 (HeLa [1]) was 3.4 µM.
With COc1cc([C@@H]2c3cc4c(cc3[C@@H](Nc3ccc(S(=O)(=O)N5CCN(c6ccc(F)cc6)CC5)cc3)[C@H]3COC(=O)[C@H]23)OCO4)cc(OC)c1O the IC50 (A549) was 57.3 µM, the IC50 (HepG2) was 54.4 µM and the IC50 (HCT-8) was 30.4 µM. For the same compound, the IC50 (HeLa [1]) was 21.9 µM.
Compound COc1cc([C@@H]2c3cc4c(cc3[C@@H](O[C@@H]3O[C@@H]5CO[C@@H](C)O[C@H]5[C@H](O)[C@H]3O)[C@H]3COC(=O)[C@H]23)OCO4)cc(OC)c1O [ETOPOSIDE] has an IC50 (HepG2) of 11.5 µM, an IC50 (HCT-8) of 6.54 µM and an IC50 (HeLa [1]) of 4.73 µM.
In the case of COc1cc([C@@H]2c3cc4c(cc3[C@@H](N3CCN(c5ccc(F)cc5)CC3)[C@H]3COC(=O)[C@H]23)OCO4)cc(OC)c1O, the IC50 (A549) is reported as 27.3 µM, the IC50 (HepG2) is reported as 20.6 µM and the IC50 (HCT-8) is reported as 14.3 µM. The IC50 (HeLa [1]) was 13.6 µM.
Compound COc1cc([C@@H]2c3cc4c(cc3[C@@H](N3CCN(C5CCCC5)CC3)[C@H]3COC(=O)[C@H]23)OCO4)cc(OC)c1O has an IC50 (A549) of 14.5 µM, an IC50 (HepG2) of 8.42 µM and an IC50 (HCT-8) of 10.2 µM. The IC50 (HeLa [1]) was 11.6 µM.
COc1cc([C@@H]2c3cc4c(cc3[C@@H](NCCNc3ccc([N+](=O)[O-])cc3)[C@H]3COC(=O)[C@H]23)OCO4)cc(OC)c1O showed an IC50 (A549) of 25.8 µM, an IC50 (HepG2) of 32.3 µM and an IC50 (HCT-8) of 14.8 µM. It also gave an IC50 (HeLa [1]) of 14.8 µM.
CCN1CCN([C@@H]2c3cc4c(cc3[C@@H](c3cc(OC)c(O)c(OC)c3)[C@H]3C(=O)OC[C@@H]32)OCO4)CC1 showed an IC50 (A549) of 28.8 µM, an IC50 (HepG2) of 5.41 µM and an IC50 (HCT-8) of 19.8 µM. It also gave an IC50 (HeLa [1]) of 3.81 µM.
